Measurements reported in patent US5280548A, “Emission based fiber optic sensors for pH and carbon dioxide analysis” (BOC Health Care, Inc., priority 1993, dated 1994).
Entries after “also recorded” stand apart in the source; their conditions may differ. Like-named read-outs stand apart in the source and are kept apart here. One block for each compound: values may come before it.

Assays:
[1] = 25° C.; cited from earlier work
[2] = pKa determination from pH-dependent emission; format: physicochemical
Experimental: (§1) The effect of temperature on the parameters describing the pH dye was determined. […] The emission spectra were measured as a function of pH at 20° C., 25° C., 30° C., 37° C., and 45° C. […] The relative emission intensity, B, was defined as the ratio of the emission from the base tautomer at 650 nm to the emission from the isosbestic point. The relative emission, A, was defined as the ratio of the isosbestic point emission to the emission from the acid tautomer at 650 nm. The quantities A and B define the upper and lower asymptotes on the response vs. pH sigmoidal curve. The pKa, A, and B were determined for the series of emission spectra at each temperature by fitting the emission intensity at 650 nm to the theoretical response vs. pH curve using non-linear regression.

[3] = Emission lifetime measurement; format: physicochemical; details: for lifetime (τ): 25° C.
Description: 1969, 31, 1-13], as a standard.

Absorption spectra = format: physicochemical; details: 25° C.
Experimental: Absorption spectra were recorded on a Perkin-Elmer Lambda 5 spectrophotometer.

[4] = Effect of temperature on emission parameters A and B of the pH dye; format: physicochemical; details: for A (relative emission, lower asymptote of response vs. pH) / B (relative emission intensity, base tautomer / isosbestic point): 650 nm
Experimental: as §1

Solubility observations = format: physicochemical
Experimental: The polymers prepared above were soluble in acetone, dioxane, tetrahydrofuran, ethanol, and dimethylacetamide. A concentrated solution of the polymer in one of these solvents was prepared and applied to the distal tip of a methacrylate optical fiber, the tip of which had been prepared by cleaving normal to its longitudinal axis with a fresh scalpel blade. The sensors were allowed to dry overnight before use.

[5] = for emission yield (Φ): 25° C.
Experimental: Emission spectra were recorded on either a ISS Greg-200 spectrofluorometer or a single-fiber spectrofluorometer discussed below. Absorption spectra were recorded on a Perkin-Elmer Lambda 5 spectrophotometer. Lifetime measurements were recorded with the ISS Greg-200 spectrofluorometer using excitation by a Coherent 700 Dye Laser with Rhodamine 6G synchronously pumped with a frequency doubled Coherent Antares mode-locked Nd:YAG laser. The mode-locker was driven by a Marconi Instruments 2022a frequency synthesizer locked in phase to another Marconi Instruments 2022a frequency synthesizer which modulated the photomultiplier tubes on the Greg-200 instrument.
Emission yields were corrected for instrument response and measured using tetraphenylporphyrin in benzene, .PHI.=0.11 [Seybold, Paul G.; Gouterman, Martin J. Mol. Spectrosc. 1969, 31, 1-13], as a standard. Lifetime measurements were calibrated with scattered light, .tau.=0. […] The output from the laser was measured before and after the experiment to ensure constant excitation intensity.

[6] = aqueous solution, 540 nm excitation

Compound: O=C=O [carbon dioxide]
pKa1 [1]: 6.35 | pKa2 [1]: 10.33 | solubility in water [1]: 0.759 ml carbon dioxide @ STP/ml water

pKa ([2]; 20° C. (Table 2)): 7.79 ± .03 | pKa ([2]; 25° C. (Table 1)): 7.58 ± 0.04 | pKa ([2]; 25° C. (Table 2)): 7.58 ± .01 | pKa ([2]; 30° C. (Table 2)): 7.57 ± .03 | pKa ([2]; 37° C. (Table 1)): 7.44 ± 0.05 | pKa ([2]; 37° C. (Table 2)): 7.44 ± .04 | pKa ([2]; 45° C. (Table 2)): 7.43 ± .06 | lifetime (τ) ([3]; acid form, Conc. 10e-6 M): .80 ns | lifetime (τ) ([3]; acid form, Conc. 10e-5 M): .80 ns | lifetime (τ) ([3]; acid form, Conc. 10e-4 M): .78 ns | lifetime (τ) ([3]; base form, Conc. 10e-6 M): 1.38 ns | lifetime (τ) ([3]; base form, Conc. 10e-5 M): 1.41 ns | lifetime (τ) ([3]; base form, Conc. 10e-4 M): 1.26 ns | lifetime, acid tautomer ([3]; acid tautomer): 800 psec | lifetime of acid tautomer, difference from previous measurement ([3]; vs. Whitaker et al. 1991): 200 psec | lambda max (Absorption spectra; acid form, Conc. 10e-6 M): 551 nm | ε (Absorption spectra; acid form, Conc. 10e-6 M): 19920 M⁻¹ cm⁻¹ | lambda max (Absorption spectra; acid form, Conc. 10e-5 M): 553 nm | ε (Absorption spectra; acid form, Conc. 10e-5 M): 19380 M⁻¹ cm⁻¹ | lambda max (Absorption spectra; acid form, Conc. 10e-4 M): 549 nm | ε (Absorption spectra; acid form, Conc. 10e-4 M): 12650 M⁻¹ cm⁻¹ | lambda max (Absorption spectra; base form, Conc. 10e-6 M): 577 nm | ε (Absorption spectra; base form, Conc. 10e-6 M): 38220 M⁻¹ cm⁻¹ | lambda max (Absorption spectra; base form, Conc. 10e-5 M): 576 nm | ε (Absorption spectra; base form, Conc. 10e-5 M): 37510 M⁻¹ cm⁻¹ | lambda max (Absorption spectra; base form, Conc. 10e-4 M): 572 nm | ε (Absorption spectra; base form, Conc. 10e-4 M): 27770 M⁻¹ cm⁻¹ | A and B vs. temperature, in words ([4]; 20-45° C.): independent of temperature | A (relative emission, lower asymptote of response vs. pH) ([4]; 20° C.): .721 ± .062 | B (relative emission intensity, base tautomer / isosbestic point) ([4]; 20° C.): 5.07 ± .11 | A (relative emission, lower asymptote of response vs. pH) ([4]; 25° C.): .628 ± .061 | B (relative emission intensity, base tautomer / isosbestic point) ([4]; 25° C.): 4.22 ± .10 | A (relative emission, lower asymptote of response vs. pH) ([4]; 30° C.): .678 ± .072 | B (relative emission intensity, base tautomer / isosbestic point) ([4]; 30° C.): 4.95 ± .12 | A (relative emission, lower asymptote of response vs. pH) ([4]; 37° C.): .702 ± .069 | B (relative emission intensity, base tautomer / isosbestic point) ([4]; 37° C.): 4.10 ± .11 | A (relative emission, lower asymptote of response vs. pH) ([4]; 45° C.): .674 ± .127 | B (relative emission intensity, base tautomer / isosbestic point) ([4]; 45° C.): 5.48 ± .19 | emission yield (Φ) ([5]; acid form, Conc. 10e-6 M): .12 | emission yield (Φ) ([5]; acid form, Conc. 10e-5 M): .12 | emission yield (Φ) ([5]; acid form, Conc. 10e-4 M): .018 | emission yield (Φ) ([5]; base form, Conc. 10e-6 M): .2 | emission yield (Φ) ([5]; base form, Conc. 10e-5 M): .22 | emission yield (Φ) ([5]; base form, Conc. 10e-4 M): .082 | emission maximum, acid peak [5, 6]: 590 nm | emission maximum, base peak [5, 6]: 640 nm | isosbestic point ([5]; emission spectra as a function of pH): 605 nm
Compound: seminaphthorhodaflor-1-carboxylate [SNARF-1C]
emission lifetime, in words [3]: The emission lifetimes are insensitive to concentration; also recorded: The lifetime of the acid tautomer of SNARF-1C is shorter than that for the base tautomer | solubility, in words (Solubility observations): The potassium salt of the acid was much easier to dissolve | emission spectra, in words ([5]; shift of spectra): do not differ from the previously published spectra; also recorded: did not shift with temperature
